# Source: patent US20250230193A1, “CYCLIC COMPOUND HAVING SELECTIVE KRAS INHIBITORY EFFECT ON HRAS AND NRAS” (CHUGAI SEIYAKU KABUSHIKI KAISHA, priority 2022, published 2025)
# Tests used:
# [1] = target: GDP-bound NRAS wild-type protein (Homo sapiens, UniProt P01111); assay: Binding to NRAS by surface plasmon resonance (SPR), Single Cycle Kinetics; conditions: for NRAS/KRAS (ratio of KD value with respect to NRAS to KD value with respect to KRAS) / NRAS/KRAS (ratio of KD value for NRAS to KD value for KRAS): GDP-bound NRAS wild-type vs GDP-bound KRAS wild-type
# [2] = target: GDP-bound HRAS wild-type protein (Homo sapiens, UniProt P01112); assay: Binding to HRAS by surface plasmon resonance (SPR), Single Cycle Kinetics; conditions: for HRAS/KRAS (ratio of KD value with respect to HRAS to KD value with respect to KRAS) / HRAS/KRAS (ratio of KD value for HRAS to KD value for KRAS): GDP-bound HRAS wild-type vs GDP-bound KRAS wild-type
# Chain of GDP-bound HRAS wild-type protein (P01112 whole entry): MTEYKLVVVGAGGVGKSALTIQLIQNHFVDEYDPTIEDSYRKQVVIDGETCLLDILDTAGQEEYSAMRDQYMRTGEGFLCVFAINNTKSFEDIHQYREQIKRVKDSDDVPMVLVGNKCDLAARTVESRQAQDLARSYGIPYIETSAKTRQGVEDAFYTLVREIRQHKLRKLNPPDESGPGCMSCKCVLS
# Chain of GDP-bound NRAS wild-type protein (P01111 whole entry): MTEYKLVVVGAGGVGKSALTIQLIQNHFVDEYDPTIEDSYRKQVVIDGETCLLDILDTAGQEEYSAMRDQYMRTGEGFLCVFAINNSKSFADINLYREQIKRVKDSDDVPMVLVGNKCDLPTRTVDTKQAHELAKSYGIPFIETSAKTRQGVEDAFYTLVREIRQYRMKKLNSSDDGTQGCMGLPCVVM
compound,measurement,setting,value
CCOC[C@H]1C(=O)N[C@@H]([C@@H](C)CC)C(=O)N(C2CC2)CC(=O)N(C)[C@H]2C/C=C\CCN(C2=O)[C@@H](Cc2ccc(C)cc2)C(=O)N(C)CC(=O)N[C@@H](CCc2ccc(Cl)c(Cl)c2)C(=O)N2C[C@H](OCC)C[C@H]2C(=O)NC2(CC(C)(C)C2)C(=O)N(C)[C@@H](CC2CCC2)C(=O)N(C)[C@H](C(=O)N(C)C)CC(=O)N1C [PP2762],NRAS/KRAS (ratio of KD value with respect to GDP-bound NRAS wild-type protein to KD value with respect to KRAS),[1]; class symbols,A (a compound having 10 or more and less than 20 is denoted as A)
same,HRAS/KRAS (ratio of KD value with respect to GDP-bound HRAS wild-type protein to KD value with respect to KRAS),[2]; class symbols,A (a compound having 10 or more and less than 20 is denoted as A)
CCO[C@@H]1C[C@H]2C(=O)NC3(CC(C)(C)C3)C(=O)N(C)[C@@H](CC3CCC3)C(=O)N(C)[C@H](C(=O)N(C)C)CC(=O)N(C)[C@@H](COC)C(=O)N[C@@H]([C@@H](C)CC)C(=O)N(C3CC3)CC(=O)N(C)[C@H]3C/C=C\CCN(C3=O)[C@@H](Cc3ccc(C(F)(F)F)cc3)C(=O)N(C)CC(=O)N[C@@H](CCc3ccc(C(F)(F)F)c(OC)c3)C(=O)N2C1 [PP2771],NRAS/KRAS (ratio of KD value with respect to GDP-bound NRAS wild-type protein to KD value with respect to KRAS),[1]; class symbols,AA (a compound having 20 or more is denoted as AA)
same,HRAS/KRAS (ratio of KD value with respect to GDP-bound HRAS wild-type protein to KD value with respect to KRAS),[2]; class symbols,A (a compound having 10 or more and less than 20 is denoted as A)
CCO[C@@H]1C[C@H]2C(=O)NC3(CCC3)C(=O)N(C)[C@@H](C3CCCC3)C(=O)N(CCC3CCC3)[C@H](C(=O)N(C)C)CC(=O)N(C)[C@@H](CC)C(=O)N[C@@H]([C@@H](C)CC)C(=O)N(C)CC(=O)N(C)[C@H]3CCCCCN(C3=O)[C@@H](Cc3ccc(C(F)(F)F)cc3)C(=O)N(C)CC(=O)N[C@@H](CCc3cc(F)c(C(F)(F)F)c(F)c3)C(=O)N2C1 [PP0635],NRAS/KRAS (ratio of KD value with respect to GDP-bound NRAS wild-type protein to KD value with respect to KRAS),[1]; SPR,B (a compound having 3 or more and less than 10 is denoted as B)
same,HRAS/KRAS (ratio of KD value with respect to GDP-bound HRAS wild-type protein to KD value with respect to KRAS),[2]; SPR,B (a compound having 3 or more and less than 10 is denoted as B)
CCC(CC)[C@H]1C(=O)N(C)[C@H](C(=O)N(C)C)CC(=O)N(C)[C@@H](COC)C(=O)N[C@@H]([C@@H](C)CC)C(=O)N(C2CC2)CC(=O)N(C)[C@H]2C/C=C\CCN(C2=O)[C@@H](Cc2ccc(C)cc2)C(=O)N(C)CC(=O)N[C@@H](CCc2cc(F)c(C(F)(F)F)c(F)c2)C(=O)N2C[C@H](OC3CCCC3)C[C@H]2C(=O)NC2(CC(C)(C)C2)C(=O)N1C [PP2619],NRAS/KRAS (ratio of KD value with respect to GDP-bound NRAS wild-type protein to KD value with respect to KRAS),[1]; class symbols,AA (a compound having 20 or more is denoted as AA)
same,HRAS/KRAS (ratio of KD value with respect to GDP-bound HRAS wild-type protein to KD value with respect to KRAS),[2]; class symbols,A (a compound having 10 or more and less than 20 is denoted as A)
CCCOC[C@H]1C(=O)N[C@@H]([C@@H](C)OCC)C(=O)N2CCC[C@H]2C(=O)N(C)[C@H]2C/C=C\CCN(C2=O)[C@@H](Cc2ccc(C)cc2)C(=O)N(C)CC(=O)N[C@@H](CCc2ccc(C(F)(F)F)c(OC)c2)C(=O)N2C[C@@H](C)C[C@H]2C(=O)NC2(CC(C)(C)C2)C(=O)N(C)[C@@H](C2CCCC2)C(=O)N(C)[C@H](C(=O)N(C)CC)CC(=O)N1C [PP2431],NRAS/KRAS (ratio of KD value with respect to NRAS to KD value with respect to KRAS),[1]; SPR,A (a compound having 10 or more and less than 20 is denoted as A)
same,HRAS/KRAS (ratio of KD value with respect to HRAS to KD value with respect to KRAS),[2]; SPR,A (a compound having 10 or more and less than 20 is denoted as A)
CCO[C@@H]1C[C@H]2C(=O)NC3(CCC3)C(=O)N(C)[C@@H](C(C)C)C(=O)N(C)[C@H](C(=O)N(C)C)CC(=O)N(C)[C@@H](CC)C(=O)N[C@@H]([C@@H](C)CC)C(=O)N(C)CC(=O)N(C)[C@H]3C/C=C\CCN(C3=O)[C@@H](Cc3ccc(C(F)(F)F)cc3)C(=O)N(C)CC(=O)N[C@@H](CCc3cc(F)c(C(F)(F)F)c(F)c3)C(=O)N2C1 [PP1088],NRAS/KRAS (ratio of KD value with respect to NRAS to KD value with respect to KRAS),"[1]; KD ratio, SPR",A (a compound having 10 or more and less than 20 is denoted as A)
same,HRAS/KRAS (ratio of KD value with respect to HRAS to KD value with respect to KRAS),"[2]; KD ratio, SPR",A (a compound having 10 or more and less than 20 is denoted as A)
CCC[C@H]1C(=O)N[C@@H]([C@@H](C)CC)C(=O)N(C)CC(=O)N(C)[C@H]2C/C=C\CCN(C2=O)[C@@H](Cc2ccc(C(F)(F)F)cc2)C(=O)N(C)CC(=O)N[C@@H](CCc2cc(F)c(C(F)(F)F)c(F)c2)C(=O)N2C[C@H](OCC)C[C@H]2C(=O)NC2(CC(F)(F)C2)C(=O)N(C)[C@@H](C2CCCC2)C(=O)N(C)[C@H](C(=O)N(C)CCC)CC(=O)N1C [PP1736],NRAS/KRAS (ratio of KD value for NRAS to KD value for KRAS),"[1]; KD ratio, SPR",A (a compound having 10 or more and less than 20 is denoted as A)
same,HRAS/KRAS (ratio of KD value for HRAS to KD value for KRAS),"[2]; KD ratio, SPR",A (a compound having 10 or more and less than 20 is denoted as A)
CCO[C@@H]1C[C@H]2C(=O)NC3(CC(C)(C)C3)C(=O)N(C)[C@@H](C3CCCC3)C(=O)N(CC)[C@H](C(=O)N(C)C)CC(=O)N(C)[C@@H](CC)C(=O)N[C@@H]([C@@H](C)CC)C(=O)N(C)CC(=O)N(C)[C@H]3C/C=C\CCN(C3=O)[C@@H](Cc3ccc(C(F)(F)F)cc3)C(=O)N(C)CC(=O)N[C@@H](CCc3cc(F)c(C(F)(F)F)c(F)c3)C(=O)N2C1 [PP1768],NRAS/KRAS (ratio of KD value for NRAS to KD value for KRAS),"[1]; KD ratio, SPR",A (a compound having 10 or more and less than 20 is denoted as A)
same,HRAS/KRAS (ratio of KD value for HRAS to KD value for KRAS),"[2]; KD ratio, SPR",A (a compound having 10 or more and less than 20 is denoted as A)
